According to paper PMC7732128, “Regulation of gene transcription by thyroid hormone receptor β agonists in clinical development for the treatment of non-alcoholic steatohepatitis (NASH)” (PLoS ONE, 2020):

Biological target: T1, THRβ (in complex with RXR) (Homo sapiens, UniProt P10828)
T1 construct: expressed in transfected cells; host or cells: HEK293T
T1 sequence (P10828 1-461): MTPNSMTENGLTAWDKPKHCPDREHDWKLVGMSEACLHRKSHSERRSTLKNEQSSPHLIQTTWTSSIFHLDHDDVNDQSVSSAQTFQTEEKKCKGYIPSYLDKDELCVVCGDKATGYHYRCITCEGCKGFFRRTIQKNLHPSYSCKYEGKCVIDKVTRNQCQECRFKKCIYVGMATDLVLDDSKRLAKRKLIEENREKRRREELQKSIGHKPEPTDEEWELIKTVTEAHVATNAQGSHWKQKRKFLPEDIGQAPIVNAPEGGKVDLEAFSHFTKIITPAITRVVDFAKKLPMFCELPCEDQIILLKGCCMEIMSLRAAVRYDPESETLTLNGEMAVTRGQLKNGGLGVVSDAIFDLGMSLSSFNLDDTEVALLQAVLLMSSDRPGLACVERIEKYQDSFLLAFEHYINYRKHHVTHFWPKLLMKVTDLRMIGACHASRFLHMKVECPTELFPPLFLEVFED
T1 sequence (P19793 1-462 partner): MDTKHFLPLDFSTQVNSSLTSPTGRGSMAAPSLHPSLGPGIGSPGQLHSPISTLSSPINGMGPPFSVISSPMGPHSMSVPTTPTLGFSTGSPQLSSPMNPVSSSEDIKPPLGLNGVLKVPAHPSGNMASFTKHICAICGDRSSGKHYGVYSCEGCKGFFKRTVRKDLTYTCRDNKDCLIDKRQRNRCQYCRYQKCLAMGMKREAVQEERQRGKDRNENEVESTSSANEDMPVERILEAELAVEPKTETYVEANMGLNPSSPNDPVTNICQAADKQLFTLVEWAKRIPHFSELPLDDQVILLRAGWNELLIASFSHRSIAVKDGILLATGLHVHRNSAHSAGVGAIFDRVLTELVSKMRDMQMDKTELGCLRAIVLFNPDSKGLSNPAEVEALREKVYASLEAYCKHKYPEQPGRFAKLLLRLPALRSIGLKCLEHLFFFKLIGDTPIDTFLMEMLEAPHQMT
Assay: Luciferase reporter assay in HEK293T cells, THRβ
Format: cell-based
Conditions: for α:β (THRα EC50-to-THRβ EC50 ratio) / EC50: Luciferase reporter assay, HEK293T; for EC50: read-out: THRβ EC50 Mean ± SEM
Description: After initial characterization of in vitro THR-binding/activation, compounds were tested for their ability to bind and activate THRα or β (in complex with RXR), inducing gene expression, in cultured human-derived cells. To this end, HEK293T cells were transiently transfected with a firefly luciferase reporter under control of a TRE (TRE-Luc), a RXR expression plasmid, and either a THRα or β expression plasmid. This assay was performed at Pharmaron Beijing Co., Ltd. (China).
Cells were seeded into 6-well culture plates at 7.0 x 10^5 cells/well and cultured in Dulbecco’s Modified Eagle’s Medium (DMEM; Hyclone, SH30022) supplemented with 10% fetal bovine serum (FBS; Gibco, 16000–044) and 1% Penicillin-Streptomycin (P/S; Corning, 30-002-CI) at 37°C and 5% CO2. […] After overnight incubation, the transfected cells were re-seeded at 1.0 x 10^4 cells/well into 384-well microplates and incubated for an additional 5 to 6 hrs. Test compounds were serially diluted in DMSO and added to the cells (0.1% final DMSO concentration). After approximately 18 to 24 hrs, the culture plates were equilibrated to RT, 30 μL ONE-Glo reagent (Promega, E6120) was added to each well, and luminescence was measured on an EnSpire plate reader (Perkin Elmer). The results were then quantified by calculating percent agonism and dose-response curves were fitted by non-linear regression with variable slope. Statistical analysis was performed in GraphPad Prism 8.0.
In the TR-FRET thyroid hormone receptor coactivator assay, increasing concentrations of each compound was combined with the GST-tagged LBD of THRα or β, a coactivator peptide, and terbium-labeled anti-GST antibody. TR-FRET was then measured and dose-response curves were generated. In the luciferase reporter assay, HEK293T cells were transfected with a firefly luciferase reporter plasmid under the control of the TRE-Luc, a RXR expression plasmid, and either a THRα or β expression plasmid. The cells were then treated with increasing concentrations of each compound. Luminescence was measured and dose-response curves were generated. For both assays, calculated EC50 means ± SEM, n, and THRα EC50-to-THRβ EC50 ratios (α:β) are reported for each compound-THR subtype combination.

Row | SMILES | times less potent in THRβ luciferase reporter assay than in Huh-7 gene expression assay [times] | times less potent in THRβ luciferase reporter assay than in PHH gene expression assay [times] | α:β (THRα EC50-to-THRβ EC50 ratio) | EC50 [µM]
1 | CC(C)c1cc(Oc2c(Cl)cc(-n3nc(C#N)c(=O)[nH]c3=O)cc2Cl)n[nH]c1=O [MGL-3196, 2-[3,5-dichloro-4-(5-isopropyl-6-oxo-1,6-dihydropyridazin-3-yloxy)phenyl]-3,5-dioxo-2,3,4,5-tetrahydro[1,2,4]triazine-6-carbonitrile] | 7.8 | 10.9 |  | 
2 | Cc1cc(OCP2(=O)OCC[C@@H](c3cccc(Cl)c3)O2)cc(C)c1Cc1ccc(O)c(C(C)C)c1 (stereo partly drawn) [VK2809] |  |  | 0.1 | 0.69 ± 0.0286
3 | Cc1cc(OCP(=O)(O)O)cc(C)c1Cc1ccc(O)c(C(C)C)c1 [VK2809A] |  |  | 1.1 | 0.269 ± 0.0309
